The source of these data is patent publication US7622480B2, “Azaindolylpiperidine derivatives as antihistaminic and antiallergic agents” (Laboratorios Almirall S.A., priority 2002, dated 2009).

The structures appear in SMILES notation.

One assay concerns the target T1, histamine H1 receptor (Cavia porcellus, UniProt P31389).
T1 construct: performed in guinea pig cerebellum membranes as described previously; from tissue; host or cells: guinea pig cerebellum membranes
As to the kind of experiment: Histamine-H1 receptor binding assay. The settings on record: guinea pig cerebellum membranes, 0.7 nM [3H]-mepyramine, 30 min at 30° C. The protocol: (1) In vitro histamine H1 receptor binding assay, to measure the affinity of the compounds. […] Briefly, the membrane suspensions (160 μg/ml) were incubated at 30° C. with 0.7 nM [^3H]-mepyramine and different concentrations of the test compounds in a final volume of 250 μl. Binding reactions were terminated by filtration after 30 min of incubation and the bound radioactivity was determined. The non-specific binding was measured in the presence of 10 μM of promethazine. The affinity of each test compound to the receptor was determined by using at least six different concentrations run in duplicate. IC50 values were obtained by non-linear regression by use of SAS on a DEC AXP computer.

For assay [1], the system named is Histamine-induced skin vascular permeability in rats. As to the kind of experiment: Histamine-induced skin vascular permeability in rats. Format: in vivo. The settings on record: Rattus norvegicus, 4 h; Male Wistar rats, oral, dose of 3 mg/Kg, four hours after administration, compared with vehicle treated group. The protocol:
Either one, four, eight or 24 hours later the rats were lightly anaesthetized with ether and a cutaneous reaction was induced by two intradermal injections of 50 μl of histamine (100 μg/ml) onto the back, followed by a intravenous injection of 3 ml/kg of Evan's Blue (5 mg/ml), both dissolved in saline. Sixty minutes later, the rats were killed by cervical dislocation and the back skin dissected free. The diameter (in millimetres) of the papule was measured in two directions and the area was calculated.

T1 sequence (P31389 whole entry): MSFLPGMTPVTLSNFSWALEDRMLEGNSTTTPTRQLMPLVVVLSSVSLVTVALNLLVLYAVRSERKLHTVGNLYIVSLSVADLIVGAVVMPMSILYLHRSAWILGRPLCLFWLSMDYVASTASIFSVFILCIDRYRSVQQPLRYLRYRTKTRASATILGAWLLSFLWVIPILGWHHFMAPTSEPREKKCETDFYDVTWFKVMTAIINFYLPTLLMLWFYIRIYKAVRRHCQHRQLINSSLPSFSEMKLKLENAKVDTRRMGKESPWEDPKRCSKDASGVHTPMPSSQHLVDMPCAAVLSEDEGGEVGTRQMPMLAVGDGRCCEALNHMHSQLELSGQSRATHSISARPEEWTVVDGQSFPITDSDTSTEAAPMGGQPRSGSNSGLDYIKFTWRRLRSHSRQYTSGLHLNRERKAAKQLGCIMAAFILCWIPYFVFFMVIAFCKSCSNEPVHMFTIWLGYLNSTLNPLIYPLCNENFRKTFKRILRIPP

The compound `COCCn1cc(C2CCN(Cc3cccc(C(=O)O)c3)CC2)c2cccnc21` [Example 1, 3-{4-[1-(2-methoxyethyl)-1H-pyrrolo[2,3-b]pyridin-3-yl]piperidin-1-ylmethyl}benzoic acid] registered an IC50 on histamine H1 receptor of 240 nM. Besides, the inhibition in vivo at 3 mg/kg in assay [1] was more than 50%.
Compound `O=C(O)c1cccc(CN2CCC(c3cn(Cc4ccoc4)c4ncccc34)CC2)c1` [Example 2, 3-[4-(1-furan-3-ylmethyl-1H-pyrrolo[2,3-b]pyridin-3-yl)piperidin-1-ylmethyl]benzoic acid] came in with an IC50 at histamine H1 receptor of 560 nM. The inhibition in vivo at 3 mg/kg in assay [1] was more than 50%.
As to `O=C(O)c1ccccc1OCCN1CCC(c2cn(Cc3ccoc3)c3ncccc23)CC1` [Example 3, 2-{2-[4-(1-furan-3-ylmethyl-1H-pyrrolo[2,3-b]pyridin-3-yl)piperidine-1-yl]ethoxy}benzoic acid], the IC50 at histamine H1 receptor is 225 nM. In assay [1], this compound yielded an inhibition in vivo at 3 mg/kg of more than 50%.
Take `CCOCCn1cc(C2CCN(Cc3cccc(C(=O)O)c3)CC2)c2cccnc21` [Example 4, 3-{4-[1-(2-ethoxyethyl)-1H-pyrrolo[2,3-b]pyridin-3-yl]piperidin-1-ylmethyl}benzoic acid]: the IC50 on histamine H1 receptor amounted to 403 nM. Further, the inhibition in vivo at 3 mg/kg in assay [1] is more than 50%.
The corresponding values for `CCOCCn1cc(C2CCN(Cc3ccc(OC)c(C(=O)O)c3)CC2)c2cccnc21` [Example 5] are 695 nM and more than 50%.
On to `CCOCCn1cc(C2CCN(CCOc3ccccc3C(=O)O)CC2)c2cccnc21` [Example 6], for which the IC50 on histamine H1 receptor came to 190 nM. This compound gave an inhibition in vivo at 3 mg/kg in assay [1] of more than 50%.
For the compound `COc1ccc(CN2CCC(c3cn(Cc4ccoc4)c4ncccc34)CC2)cc1C(=O)O` [Example 7, 5-[4-(1-furan-3-ylmethyl-1H-pyrrolo[2,3-b]pyridin-3-yl)-piperidin-1-ylmethyl]-2-methoxybenzoic acid], on histamine H1 receptor, the IC50 was found to be 205 nM. The compound further gave an inhibition in vivo at 3 mg/kg in assay [1] of more than 50%.
The corresponding values for `O=C(O)c1ccccc1OCCN1CCC(c2cn(Cc3ccco3)c3ncccc23)CC1` [Example 8, 2-{2-[4-(1-furan-2-ylmethyl-1H-pyrrolo[2,3-b]pyridin-3-yl)-piperidin-1-yl]-ethoxy}-benzoic acid] are 405 nM and more than 50%.
As to `O=C(O)c1cccc(CN2CCC(c3cn(Cc4ccco4)c4ncccc34)CC2)c1` [Example 9, 3-[4-(1-furan-2-ylmethyl-1H-pyrrolo[2,3-b]pyridin-3-yl)piperidin-1-ylmethyl]-benzoic acid], on histamine H1 receptor, the IC50 was found to be 150 nM. Also, the inhibition in vivo at 3 mg/kg in assay [1] is more than 50%.
The corresponding values for `COc1ccc(CN2CCC(c3cn(Cc4ccco4)c4ncccc34)CC2)cc1C(=O)O` [Example 10, 5-[4-(1-furan-2-ylmethyl-1H-pyrrolo[2,3-b]pyridin-3-yl)piperidin-1-ylmethyl]-2methoxy-benzoic acid] are 335 nM and more than 50%.
`O=C(O)c1ccccc1OCCN1CCC(c2cn(Cc3cccs3)c3ncccc23)CC1` [Example 11, 2-{2-[4-(1-thiophen-2-ylmethyl-1H-pyrrolo[2,3-b]pyridin-3-yl)-piperidin-1-yl]-ethoxy}benzoic acid] yielded an IC50 at histamine H1 receptor of 505 nM.
Same read-out and setting: the value for `O=C(O)c1ccccc1OCCN1CCC(c2cn(Cc3ccsc3)c3ncccc23)CC1` [Example 14, 2-{2-[4-(1-thiophen-3-ylmethyl-1H-pyrrolo[2,3-b]pyridin-3-yl)-piperidin-1-yl]-ethoxy}-benzoic acid] was 510 nM; that for `O=C(O)c1ccccc1OCCN1CCC(c2cn(Cc3ccc(Cl)s3)c3ncccc23)CC1` [Example 17, 2-(2-{4-[1-(5-chlorothiophen-2-ylmethyl)-1H-pyrrolo[2,3-b]pyridin-3-yl]-piperidin-1-yl}-ethoxy)-benzoic acid] was 265 nM.
On the same count and under the same terms, the value for `O=C(O)c1cccc(CN2CCC(c3cn(Cc4ccc(Cl)s4)c4ncccc34)CC2)c1` [Example 18, 3-{4-[1-(5-chlorothiophen-2-ylmethyl)-1H-pyrrolo[2,3-b]pyridin-3-yl]-piperidin-1-ylmethyl}-benzoic acid] was 315 nM.
Consider `COCCn1cc(C2CCN(Cc3c(OC)ccc(C(=O)O)c3OC)CC2)c2cccnc21` [Example 22, 2,4-dimethoxy-3-{4-[1-(2-methoxyethyl)-1H-pyrrolo[2,3-b]pyridin-3-yl]-piperidin-1-ylmethyl}-benzoic acid], for which the IC50 at histamine H1 receptor was determined as 235 nM. This IC50 and that of the compound before are within 1.5-fold of each other.
At histamine H1 receptor, `COCCn1cc(C2CCN(CCOc3cccc(OC)c3C(=O)O)CC2)c2cccnc21` [Example 23, 2-methoxy-6-(2-{4-[1-(2-methoxyethyl)-1H-pyrrolo[2,3-b]pyridin-3-yl]-piperidin-1-yl}-ethoxy)benzoic acid] gave an IC50 of 275 nM.
On histamine H1 receptor, `CCCCn1cc(C2CCN(Cc3cccc(C(=O)O)c3)CC2)c2cccnc21` [Example 26, 3-[4-(1-butyl-1H-pyrrolo[2,3-b]pyridin-3-yl)piperidin-1-ylmethyl]-benzoic acid] gave an IC50 of 275 nM.
With `O=C(O)c1cccc(CN2CCC(c3cn(CC4CC4)c4ncccc34)CC2)c1` [Example 28, 3-[4-(1-cyclopropylmethyl-1H-pyrrolo[2,3-b]pyridin-3-yl)-piperidin-1-ylmethyl]-benzoic acid], the half-inhibitory concentration (IC50) at histamine H1 receptor came out at 520 nM.
In turn, `CCOCCn1cc(C2CCN(CCOc3c(OC)cccc3C(=O)O)CC2)c2cccnc21` [Example 37, 2-(2-{4-[1-(2-ethoxyethyl)-1H-pyrrolo[2,3-b]pyridin-3-yl]-piperidin-1-yl}-ethoxy)-3-methoxybenzoic acid] displayed an IC50 on histamine H1 receptor of 155 nM. Compared with the last compound, the IC50 is about 3.4-fold lower.
The same measure, in the same setting: then `COc1ccc(C(=O)O)c(OCCN2CCC(c3cn(Cc4ccoc4)c4ncccc34)CC2)c1` [Example 43, 2-{2-[4-(1-furan-3-ylmethyl-1H-pyrrolo[2,3-b]pyridin-3-yl)piperidin-1-yl]-ethoxy}-4-methoxybenzoic acid], with 120 nM.
In the case of `O=C(O)c1cc(CN2CCC(c3cn(Cc4ccoc4)c4ncccc34)CC2)ccc1F` [Example 45, 2-fluoro-5-[4-(1-furan-3-ylmethyl-1H-pyrrolo[2,3-b]pyridin-3-yl)-piperidin-1-ylmethyl]-benzoic acid], at histamine H1 receptor, the IC50 was 255 nM.
Still for that read-out and setting: then `COc1ccc(C(=O)O)c(OCCN2CCC(c3cn(Cc4ccco4)c4ncccc34)CC2)c1` [Example 50, 2-{2-[4-(1-furan-2-ylmethyl-1H-pyrrolo[2,3-b]pyridin-3-yl)-piperidin-1-yl]-ethoxy}-4-methoxybenzoic acid], with 48 nM; and `COc1cccc(C(=O)O)c1OCCN1CCC(c2cn(Cc3ccc(Cl)s3)c3ncccc23)CC1` [Example 54, 2-(2-{4-[1-(5-chlorothiophen-2-ylmethyl)-1H-pyrrolo[2,3-b]pyridin-3-yl]-piperidin-1-yl}-ethoxy)-3-methoxybenzoic acid], with 695 nM.
Turning to `CCCCn1cc(C2CCN(CCOc3cc(Cl)ccc3C(=O)O)CC2)c2cccnc21` [Example 63, 2-{2-[4-(1-butyl-1H-pyrrolo[2,3-b]pyridin-3-yl)-piperidin-1-yl]-ethoxy}-4-chlorobenzoic acid], the IC50 on histamine H1 receptor worked out at 110 nM.
The same measure, in the same setting: then `CCCCn1cc(C2CCN(Cc3ccc(F)c(C(=O)O)c3)CC2)c2cccnc21` [Example 64, 5-[4-(1-butyl-1H-pyrrolo[2,3-b]pyridin-3-yl)-piperidin-1-ylmethyl]-2-fluorobenzoic acid], with 380 nM; and `CCOCCn1cc(C2CCN(CCOc3cc(Cl)ccc3C(=O)O)CC2)c2ccncc21` [Example 73, 4-chloro-2-(2-{4-[1-(2-ethoxyethyl)-1H-pyrrolo[2,3-c]pyridin-3-yl]-piperidin-1-yl}-ethoxy)-benzoic acid], with 111 nM; and `COc1ccc(C(=O)O)c(OCCN2CCC(c3cn(Cc4ccoc4)c4cnccc34)CC2)c1` [Example 76, 2-{2-[4-(1-furan-3-ylmethyl-1H-pyrrolo[2,3-c]pyridin-3-yl)-piperidin-1-yl]-ethoxy}-4-methoxybenzoic acid], with 675 nM.
`CCCCn1cc(C2CCN(CCOc3ccccc3C(=O)O)CC2)c2ccncc21` [Example 81, 2-{2-[4-(1-butyl-1H-pyrrolo[2,3-c]pyridin-3-yl)-piperidin-1-yl]-ethoxy}-benzoic acid] showed an IC50 at histamine H1 receptor of 220 nM.
The same measure, in the same setting: the value for `CCCCn1cc(C2CCN(CCOc3cc(Cl)ccc3C(=O)O)CC2)c2ccncc21` [Example 84, 2-{2-[4-(1-butyl-1H-pyrrolo[2,3-c]pyridin-3-yl)piperidin-1-yl]-ethoxy}-4-chlorobenzoic acid] was 74 nM; that for `O=C(O)c1ccc(Cl)cc1OCCN1CCC(c2cn(Cc3ccc(Cl)s3)c3cnccc23)CC1` [Example 92, 4-chloro-2-(2-{4-[1-(5-chlorothiophen-2-ylmethyl)-1H-pyrrolo[2,3-c]pyridin-3-yl]-piperidin-1-yl}-ethoxy)-benzoic acid] was 105 nM.
On the same count and under the same terms, then `COc1ccc(CN2CCC(c3cn(Cc4ccco4)c4cnccc34)CC2)cc1C(=O)O` [Example 96, 5-[4-(1-furan-2-ylmethyl-1H-pyrrolo[2,3-c]pyridin-3-yl)-piperidin-1-ylmethyl]-2-methoxybenzoic acid], with 805 nM.
